One compound from paper PMC8035642, “A haustorial‐expressed lytic polysaccharide monooxygenase from the cucurbit powdery mildew pathogen Podosphaera xanthii contributes to the suppression of chitin‐triggered immunity” (Molecular Plant Pathology, 2021) can be followed below.

In the assay the target is T1, PHEC27213 (PxLPMO1) (Podosphaera xanthii, UniProt A0A8E4PV92).
T1 construct: gene SHLPMO1; mature protein, signal peptide removed (191 residues), C-terminal 6xHis tag kept, pET30b NdeI/XhoI, E. coli BL21-CodonPlus-RIL; start Met from NdeI site probably before His1
T1 sequence (A0A8E4PV92 entry or part of it): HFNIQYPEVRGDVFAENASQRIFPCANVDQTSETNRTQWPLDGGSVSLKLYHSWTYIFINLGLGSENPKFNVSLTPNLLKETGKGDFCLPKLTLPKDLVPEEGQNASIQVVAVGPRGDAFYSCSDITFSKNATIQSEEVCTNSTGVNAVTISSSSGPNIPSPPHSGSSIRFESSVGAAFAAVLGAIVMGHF
Put plainly: MALDI-TOF-MS of reaction products. In kind it is biochemical. The note with it: 1 mM ascorbic acid as reductant, 0.1 M sodium phosphate pH 7.0, 37 °C overnight, 1 μM enzyme; no copper addition told.

Each structure is given as a SMILES string.

As for `CC(=O)N[C@H]1[C@H](O[C@H]2[C@H](O)[C@@H](NC(C)=O)[C@H](O[C@H]3[C@H](O)[C@@H](NC(C)=O)[C@H](O[C@H]4[C@H](O)[C@@H](NC(C)=O)C(O)O[C@@H]4CO)O[C@@H]3CO)O[C@@H]2CO)O[C@H](CO)[C@@H](O[C@@H]2O[C@H](CO)[C@@H](O[C@@H]3O[C@H](CO)[C@@H](O[C@@H]4O[C@H](CO)[C@@H](O)[C@H](O)[C@H]4NC(C)=O)[C@H](O)[C@H]3NC(C)=O)[C@H](O)[C@H]2NC(C)=O)[C@@H]1O` (stereo partly shown) [DP7, hepta-N-acetylchitoheptaose], the “MALDI-TOF-MS of reaction products” value is on record as “PHEC27213 was able to release, predominantly, DP5 oligosaccharides”.
